Results on one molecule are retold here after publication PMC9133036 (Nature Communications, 2022).

Where two headings read alike, the source gives them in different places.

One experiment addresses T1, OX2R T135A (Homo sapiens, UniProt O43614, T135A).
T1 construct: FLAG; expressed in transfected cells; host or cells: HEK293
Nature of the experiment: IP accumulation assay, OX2R T135A. Format: cell-based. From the text:
The IP assay was adapted from a prior precedent. HEK293 cells were maintained in DMEM-high glucose (Millipore Sigma) supplemented with 5% fetal bovine serum (Corning) and penicillin-streptomycin (Millipore Sigma). Receptor constructs used were the full-length wild-type (or mutant) human OX1R and OX2R sequences cloned into pCDNA3. To enhance the Emax in the IP assay, a plasmid encoding full-length human Gαq subunit[66] was co-transfected into HEK293 cells with plasmids encoding orexin receptor constructs using Lipofectamine 3000 (Thermo Fisher). 24 h after transfection, the cells were plated on poly-D-lysine coated (Millipore Sigma) tissue culture-treated 96 well white plates with clear bottoms (Perkin Elmer) at 30,000 cells per well in Inositol-free DMEM (MP Biomedicals) supplemented with 5% fetal bovine serum, 4 mM L-glutamine (Millipore Sigma), penicillin-streptomycin, and about 5 uCi (5 ul) per ml myo-[2-3H] inositol (Perkin Elmer). The following day, the media was replaced with agonists that were diluted in HBSS (Millipore Sigma) containing 10 mM lithium chloride (Millipore Sigma) and incubated at 37 °C for 45 min. Then agonists were removed and cells were lysed on ice for 30 min with 10 mM formic acid (Millipore Sigma). […] The plates were read on a MicroBeta scintillation counter (Perkin Elmer) the following day. […]

A further experiment deals with T2, OX1R S103T/A127T (Homo sapiens, UniProt O43613, A127T/S103T).
T2 construct: FLAG; expressed in transfected cells; host or cells: HEK293
T2 sequence (O43613 1-425 S103T/A127T): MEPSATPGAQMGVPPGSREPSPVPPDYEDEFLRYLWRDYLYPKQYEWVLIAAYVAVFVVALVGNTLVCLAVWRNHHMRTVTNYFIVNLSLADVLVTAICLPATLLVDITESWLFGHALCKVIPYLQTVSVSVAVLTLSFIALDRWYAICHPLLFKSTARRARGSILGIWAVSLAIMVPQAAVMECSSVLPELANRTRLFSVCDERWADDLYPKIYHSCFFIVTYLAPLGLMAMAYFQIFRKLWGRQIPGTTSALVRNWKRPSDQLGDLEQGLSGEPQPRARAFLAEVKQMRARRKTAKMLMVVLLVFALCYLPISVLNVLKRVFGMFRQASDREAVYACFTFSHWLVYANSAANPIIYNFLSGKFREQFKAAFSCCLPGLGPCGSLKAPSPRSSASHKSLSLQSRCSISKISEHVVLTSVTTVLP
Nature of the experiment: IP accumulation assay, OX1R S103T/A127T. Format: cell-based. From the text: The IP assay was adapted from a prior precedent. HEK293 cells were maintained in DMEM-high glucose (Millipore Sigma) supplemented with 5% fetal bovine serum (Corning) and penicillin-streptomycin (Millipore Sigma). Receptor constructs used were the full-length wild-type (or mutant) human OX1R and OX2R sequences cloned into pCDNA3. To enhance the Emax in the IP assay, a plasmid encoding full-length human Gαq subunit[66] was co-transfected into HEK293 cells with plasmids encoding orexin receptor constructs using Lipofectamine 3000 (Thermo Fisher). 24 h after transfection, the cells were plated on poly-D-lysine coated (Millipore Sigma) tissue culture-treated 96 well white plates with clear bottoms (Perkin Elmer) at 30,000 cells per well in Inositol-free DMEM (MP Biomedicals) supplemented with 5% fetal bovine serum, 4 mM L-glutamine (Millipore Sigma), penicillin-streptomycin, and about 5 uCi (5 ul) per ml myo-[2-3H] inositol (Perkin Elmer). The following day, the media was replaced with agonists that were diluted in HBSS (Millipore Sigma) containing 10 mM lithium chloride (Millipore Sigma) and incubated at 37 °C for 45 min. Then agonists were removed and cells were lysed on ice for 30 min with 10 mM formic acid (Millipore Sigma). 1.25 mg of poly-lysine coated YSI SPA beads (Perkin Elmer) was added to each well. The plates were mixed on an orbital shaker for 30 min. The plates were read on a MicroBeta scintillation counter (Perkin Elmer) the following day. IP accumulation assays on different constructs were performed in n ≥ 3 independent experiments (each done in duplicate), where n is shown in Supplementary Table 2.

The test system of the next experiment is OX2R. Particulars: cited from earlier work.
In the next experiment the target is T3, OX2R R328A (Homo sapiens, UniProt O43614, R328A).
T3 construct: expressed in transfected cells; host or cells: CHO-K1 stably expressing EA β-arrestin2
Nature of the experiment: β-arrestin PathHunter assay, OX2R R328A. Format: cell-based. The following applies: β-arrestin recruitment. As to the method: (§1) β-Arrestin recruitment activity was measured by using the PathHunter system (DiscoveRX) according to the manufacturer’s instruction. Receptor constructs used were the full-length wild-type (or mutant) human OX2R sequences cloned into pCMV-ProLink (DiscoveRX). CHO-K1 cells stably expressing EA β-arrestin2 (DiscoveRX) were plated on 384 well white plates (Thermo Fisher) at 4000 cells/well in HamF12 (Wako Pure Chemical Industries) supplemented with 10% fetal bovine serum (Corning) and penicillin-streptomycin (Wako Pure Chemical Industries) and incubated overnight at 37 °C under 5% CO2. Cells were transfected with plasmids encoding wild type or each mutant ProLink-tagged human OX2R using FuGENE HD (Promega). […] Detection reagent was added and incubated for 1 h at room temperature. Luminescent signal was detected using an EnVision plate reader (PerkinElmer). β-arrestin assays on different constructs were performed in two or three independent experiments (each done in quadruplicate). Dose response curves (shown in Supplementary Fig. 8) were fitted to the three-parameter model ‘log(agonist) vs response’ in GraphPad Prism to determine pEC50 values.
(In general: Activated receptors often draw arrestin, which recruitment assays turn into a signal.)

The next experiment concerns wakefulness. Particulars: subcutaneous delivery during the sleep period; cited from earlier work.
The target in another experiment is T4, OX2R W120A (Homo sapiens, UniProt O43614, W120A).
T4 construct: expressed in transfected cells; host or cells: CHO-K1 stably expressing EA β-arrestin2
The experiment is described as follows: β-arrestin PathHunter assay, OX2R W120A. It is filed as cell-based. Particulars: β-arrestin recruitment. As to the method: as §1

In another experiment the target is T5, OX2R Y317A (Homo sapiens, UniProt O43614, Y317A).
T5 construct: expressed in transfected cells; host or cells: CHO-K1 stably expressing EA β-arrestin2
T5 sequence (O43614 1-444 Y317A): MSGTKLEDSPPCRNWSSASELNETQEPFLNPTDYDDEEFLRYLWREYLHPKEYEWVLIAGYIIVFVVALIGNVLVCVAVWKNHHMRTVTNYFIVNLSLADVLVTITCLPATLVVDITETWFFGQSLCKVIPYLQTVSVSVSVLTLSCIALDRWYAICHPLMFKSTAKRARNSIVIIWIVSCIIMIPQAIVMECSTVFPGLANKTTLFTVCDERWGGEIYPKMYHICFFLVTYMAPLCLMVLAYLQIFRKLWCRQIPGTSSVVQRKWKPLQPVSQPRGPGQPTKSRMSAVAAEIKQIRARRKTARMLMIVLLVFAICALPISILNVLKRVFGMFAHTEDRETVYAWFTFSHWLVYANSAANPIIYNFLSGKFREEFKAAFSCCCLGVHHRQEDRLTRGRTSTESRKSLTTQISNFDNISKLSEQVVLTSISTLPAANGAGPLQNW
The experiment is described as follows: β-arrestin PathHunter assay, OX2R Y317A. Format: cell-based. Particulars: for EC50: β-arrestin recruitment. As to the method: as §1

The target of a further experiment is T6, OX2R F228A (Homo sapiens, UniProt O43614, F228A).
T6 construct: expressed in transfected cells; host or cells: CHO-K1 stably expressing EA β-arrestin2
The experiment is described as follows: β-arrestin PathHunter assay, OX2R F228A. It is filed as cell-based. Particulars: β-arrestin recruitment. As to the method: as §1

For another experiment, the target named is T7, OX2R K327A (Homo sapiens, UniProt O43614, K327A).
T7 construct: expressed in transfected cells; host or cells: CHO-K1 stably expressing EA β-arrestin2
Nature of the experiment: β-arrestin PathHunter assay, OX2R K327A. Particulars: β-arrestin recruitment. It is filed as cell-based. As to the method: as §1

T1 sequence (O43614 whole entry T135A): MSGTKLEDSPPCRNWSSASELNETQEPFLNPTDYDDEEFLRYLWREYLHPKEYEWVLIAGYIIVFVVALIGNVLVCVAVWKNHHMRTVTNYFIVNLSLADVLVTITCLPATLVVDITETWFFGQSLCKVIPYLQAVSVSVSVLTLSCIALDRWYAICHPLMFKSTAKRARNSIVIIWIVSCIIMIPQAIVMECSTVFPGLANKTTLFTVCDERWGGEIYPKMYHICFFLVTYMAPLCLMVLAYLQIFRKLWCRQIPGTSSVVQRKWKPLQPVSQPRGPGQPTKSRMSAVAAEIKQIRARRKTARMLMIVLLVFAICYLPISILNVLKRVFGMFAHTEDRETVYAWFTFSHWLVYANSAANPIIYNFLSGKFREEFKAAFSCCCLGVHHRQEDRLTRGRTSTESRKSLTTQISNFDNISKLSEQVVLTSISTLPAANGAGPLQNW
T4 sequence (O43614 whole entry W120A): as the sequence (O43614 whole entry T135A) above, with W120A, A135T counted along it
T3 sequence (O43614 whole entry R328A): as the sequence (O43614 whole entry T135A) above, with A135T, R328A counted along it
T6 sequence (O43614 whole entry F228A): as the sequence (O43614 whole entry T135A) above, with A135T, F228A counted along it
T7 sequence (O43614 whole entry K327A): as the sequence (O43614 whole entry T135A) above, with A135T, K327A counted along it

On to `COC(=O)N1CCC[C@H](NS(C)(=O)=O)[C@@H]1CO[C@H]1CC[C@@H](c2ccccc2)CC1` [TAK-925, methyl (2R,3S)−3-[(methylsulfonyl)amino]−2-{[(cis−4-phenylcyclohexyl)oxy]methyl}piperidine-1-carboxylate], for which the EC50 is 0.58 µM on OX2R T135A (IP accumulation); 0.3 µM on OX1R S103T/A127T (IP accumulation); 3 µM at OX2R R328A; greater than 30 µM on OX2R W120A (read-out: EC50); greater than 30.2 µM on OX2R W120A (read-out: pEC50 (converted)); greater than 30.2 µM on OX2R Y317A (pEC50 ± SEM, read-out: pEC50 (converted)). Moreover, the EC50 at OX2R Y317A (read-out: EC50) was greater than 30 µM; at OX2R F228A it was 0.6 µM; at OX2R K327A, 2.3 µM. Further, the Emax on OX2R T135A (relative to OX2R WT/TAK-925) is 90; on OX1R S103T/A127T (normalized to OX1R S103T/A127T Emax), 100. Further, at OX1R S103T/A127T (0.75 h, TAK-925 conc (log, M) -4.00), the activation at 100 µM was 90.6%. Also, the activation at 33.1 µM on OX1R S103T/A127T (0.75 h, TAK-925 conc (log, M) -4.48) came out at 102%. The molecule also showed an activation at 11.2 µM at OX1R S103T/A127T (0.75 h, TAK-925 conc (log, M) -4.95) of 99.6%. The same molecule gave an activation at 3.72 µM at OX1R S103T/A127T (0.75 h, TAK-925 conc (log, M) -5.43) of 94.2%. The same molecule returned an activation at 1.23 µM at OX1R S103T/A127T (0.75 h, TAK-925 conc (log, M) -5.91) of 81.6%. This molecule registered an activation at 0.407 µM on OX1R S103T/A127T (0.75 h, TAK-925 conc (log, M) -6.39) of 58.2%. This molecule also had an activation at 0.138 µM at OX1R S103T/A127T (0.75 h, TAK-925 conc (log, M) -6.86) of 26.9%. At OX1R S103T/A127T (0.75 h, TAK-925 conc (log, M) -7.82), this molecule had an activation at 0.0151 µM of 6.39%. Besides, in the experiment with OX2R, the “potency for OX2R activation” value is on record as “low-nanomolar”. Also, the “wakefulness and sleep time” value in the experiment with wakefulness was “dose-dependent increase in wakefulness and reduction in sleep time”. Further, the “β-arrestin recruitment, change on mutation of Tyr317” value on OX2R Y317A was “large reductions”.
